Species: Rattus norvegicus
Assay: DrugMatrix - Regimen: Daily Repeat
Format: toxicity, organism-based, Sprague-Dawley
Set-up: regimen Daily Repeat, gender Male, age 6-8 weeks
Conditions: in vivo, po, route oral GAVAGE, vehicle 100 % WATER; for ABSOLUTE BASOPHIL / ABSOLUTE EOSINOPHIL / ABSOLUTE LYMPHOCYTE / ABSOLUTE MONOCYTE / ABSOLUTE SEGMENTED NEUTROPHIL / BASOPHIL / EOSINOPHIL / ERYTHROCYTE COUNT / HEMATOCRIT / HEMOGLOBIN / LEUKOCYTE COUNT / LYMPHOCYTE / MEAN CORPUSCULAR HEMOGLOBIN / MEAN CORPUSCULAR HEMOGLOBIN CONCENTRATION / MEAN CORPUSCULAR VOLUME / MONOCYTE / NEUTROPHIL / NUCLEATED RED BLOOD CELLS / PLATELET COUNT: tissue Blood; for ALANINE AMINOTRANSFERASE / ALBUMIN / ALKALINE PHOSPHATASE / ASPARTATE AMINOTRANSFERASE / BLOOD UREA NITROGEN / CARBON DIOXIDE / CHLORIDE / CHOLESTEROL / CREATINE PHOSPHOKINASE / CREATININE / GLUCOSE / LACTATE DEHYDROGENASE / LIPASE / PHOSPHORUS / POTASSIUM / SODIUM / TOTAL BILIRUBIN / TOTAL PROTEIN / URIC ACID: tissue Plasma
[1] = 0 mg/kg, 72 h, dose level Control, time 3 day
[2] = 0 mg/kg, 120 h, dose level Control, time 5 day
[3] = 175 mg/kg, 72 h, dose level High, time 3 day

O=c1[nH]c(=O)n(C2CCCO2)cc1F (centres undefined) [TEGAFUR]
ABSOLUTE BASOPHIL [1]: 0 CELLS/uL
ABSOLUTE EOSINOPHIL [1]: 168.33 CELLS/uL
ABSOLUTE LYMPHOCYTE [1]: 13654.17 CELLS/uL
ABSOLUTE MONOCYTE [1]: 121 CELLS/uL
ABSOLUTE SEGMENTED NEUTROPHIL [1]: 1223.17 CELLS/uL
BASOPHIL [1]: 0%
EOSINOPHIL [1]: 1.17%
ERYTHROCYTE COUNT [1]: 5.7 x10E6/uL
HEMATOCRIT [1]: 35.33%
HEMOGLOBIN [1]: 13.97 G/DL
LEUKOCYTE COUNT [1]: 15.17 x10E3/uL
LYMPHOCYTE [1]: 89.83%
MEAN CORPUSCULAR HEMOGLOBIN [1]: 24.53 pg
MEAN CORPUSCULAR HEMOGLOBIN CONCENTRATION [1]: 39.53 G/DL
MEAN CORPUSCULAR VOLUME [1]: 62.05 fL
MONOCYTE [1]: 0.83%
NEUTROPHIL [1]: 8.17%
NUCLEATED RED BLOOD CELLS [1]: 0 /100WBC
PLATELET COUNT [1]: 1312.17 x10E3/uL
ALANINE AMINOTRANSFERASE [1]: 50.83 u/L
ALBUMIN [1]: 4.18 G/DL
ALKALINE PHOSPHATASE [1]: 334.17 u/L
ASPARTATE AMINOTRANSFERASE [1]: 82.17 u/L
BLOOD UREA NITROGEN [1]: 15.5 mg/dL
CARBON DIOXIDE [1]: 31.33 mmol/L
CHLORIDE [1]: 99.83 MEQ/L
CHOLESTEROL [1]: 76 mg/dL
CREATINE PHOSPHOKINASE [1]: 272.17 u/L
CREATININE [1]: 0.17 mg/dL
GLUCOSE [1]: 143 mg/dL
LACTATE DEHYDROGENASE [1]: 157.5 u/L
LIPASE [1]: 9.33 u/L
PHOSPHORUS [1]: 12.18 mg/dL
POTASSIUM [1]: 6.78 MEQ/L
SODIUM [1]: 143.9 MEQ/L
TOTAL BILIRUBIN [1]: 0.22 mg/dL
TOTAL PROTEIN [1]: 5.85 G/DL
URIC ACID [1]: 1.7 mg/dL
ABSOLUTE BASOPHIL [2]: 0 CELLS/uL
ABSOLUTE EOSINOPHIL [2]: 0 CELLS/uL
ABSOLUTE LYMPHOCYTE [2]: 13539.33 CELLS/uL
ABSOLUTE MONOCYTE [2]: 177.67 CELLS/uL
ABSOLUTE SEGMENTED NEUTROPHIL [2]: 2116.33 CELLS/uL
BASOPHIL [2]: 0%
EOSINOPHIL [2]: 0%
ERYTHROCYTE COUNT [2]: 5.78 x10E6/uL
HEMATOCRIT [2]: 36.13%
HEMOGLOBIN [2]: 14.1 G/DL
LEUKOCYTE COUNT [2]: 15.83 x10E3/uL
LYMPHOCYTE [2]: 85.83%
MEAN CORPUSCULAR HEMOGLOBIN [2]: 24.42 pg
MEAN CORPUSCULAR HEMOGLOBIN CONCENTRATION [2]: 39 G/DL
MEAN CORPUSCULAR VOLUME [2]: 62.55 fL
MONOCYTE [2]: 0.83%
NEUTROPHIL [2]: 13.33%
NUCLEATED RED BLOOD CELLS [2]: 0.17 /100WBC
PLATELET COUNT [2]: 1281.17 x10E3/uL
ALANINE AMINOTRANSFERASE [2]: 55.5 u/L
ALBUMIN [2]: 4.22 G/DL
ALKALINE PHOSPHATASE [2]: 345 u/L
ASPARTATE AMINOTRANSFERASE [2]: 92.5 u/L
BLOOD UREA NITROGEN [2]: 16.5 mg/dL
CARBON DIOXIDE [2]: 26.5 mmol/L
CHLORIDE [2]: 103.5 MEQ/L
CHOLESTEROL [2]: 78.5 mg/dL
CREATINE PHOSPHOKINASE [2]: 381.5 u/L
CREATININE [2]: 0.21 mg/dL
GLUCOSE [2]: 161.83 mg/dL
LACTATE DEHYDROGENASE [2]: 487.5 u/L
LIPASE [2]: 10.17 u/L
PHOSPHORUS [2]: 11.83 mg/dL
POTASSIUM [2]: 6.4 MEQ/L
SODIUM [2]: 146.95 MEQ/L
TOTAL BILIRUBIN [2]: 0.22 mg/dL
TOTAL PROTEIN [2]: 6.22 G/DL
URIC ACID [2]: 1.83 mg/dL
ABSOLUTE BASOPHIL [3]: 0 CELLS/uL
ABSOLUTE EOSINOPHIL [3]: 0 CELLS/uL
ABSOLUTE LYMPHOCYTE [3]: 11530.33 CELLS/uL
ABSOLUTE MONOCYTE [3]: 235 CELLS/uL
ABSOLUTE SEGMENTED NEUTROPHIL [3]: 434.67 CELLS/uL
BASOPHIL [3]: 0%
EOSINOPHIL [3]: 0%
ERYTHROCYTE COUNT [3]: 5.62 x10E6/uL
HEMATOCRIT [3]: 35%
HEMOGLOBIN [3]: 13.93 G/DL
LEUKOCYTE COUNT [3]: 12.2 x10E3/uL
LYMPHOCYTE [3]: 94.33%
MEAN CORPUSCULAR HEMOGLOBIN [3]: 24.87 pg
MEAN CORPUSCULAR HEMOGLOBIN CONCENTRATION [3]: 39.83 G/DL
MEAN CORPUSCULAR VOLUME [3]: 62.43 fL
MONOCYTE [3]: 2%
NEUTROPHIL [3]: 3.67%
NUCLEATED RED BLOOD CELLS [3]: 0 /100WBC
PLATELET COUNT [3]: 1245 x10E3/uL
ALANINE AMINOTRANSFERASE [3]: 377 u/L
ALBUMIN [3]: 4.23 G/DL
ALKALINE PHOSPHATASE [3]: 316.67 u/L
ASPARTATE AMINOTRANSFERASE [3]: 623.67 u/L
BLOOD UREA NITROGEN [3]: 18 mg/dL
CARBON DIOXIDE [3]: 25.33 mmol/L
CHLORIDE [3]: 98 MEQ/L
CHOLESTEROL [3]: 59.33 mg/dL
CREATINE PHOSPHOKINASE [3]: 3619.67 u/L
CREATININE [3]: 0.24 mg/dL
GLUCOSE [3]: 187.67 mg/dL
LACTATE DEHYDROGENASE [3]: 3501.33 u/L
LIPASE [3]: 13.33 u/L
PHOSPHORUS [3]: 13.57 mg/dL
POTASSIUM [3]: 9.03 MEQ/L
SODIUM [3]: 141.23 MEQ/L
TOTAL BILIRUBIN [3]: 0.23 mg/dL
TOTAL PROTEIN [3]: 5.9 G/DL
URIC ACID [3]: 2.9 mg/dL

Source: ChEMBL document CHEMBL3885881, “DrugMatrix”
